According to patent US10710980B2, “Aminopyridine derivatives and their use as selective ALK-2 inhibitors” (priority 2016, dated 2020):

Legend:
ALK6 (aa168-495) = ALK6 (aa168-495) (Homo sapiens (Human), UniProt O00238); test: Caliper biochemical peptide phosphorylation assay, ALK6; details: 15 μm ATP, 60 min at 30° C.; read-out: ALK6 EPK (IC50)
[1] = system: BMP response element (BRE) luciferase reporter in HuH7 cells, BMP6 stimulated; test: BMP signaling reporter gene assay; type: cell-based; details: Homo sapiens, Huh-7; HuH7 BRE-luciferase, BMP6 100 ng/ml, 5 hours; read-out: MSD BMP RGA IC50
ALK1 (aa166-493) = ALK1 (aa166-493) (Homo sapiens (Human), UniProt P37023); test: Caliper biochemical peptide phosphorylation assay, ALK1; details: 15 μm ATP, 60 min at 30° C.; read-out: ALK1 EPK (IC50)
[2] = target: T1, wild-type ALK2 (aa172-499) (Homo sapiens (Human), UniProt Q04771); test: Caliper biochemical peptide phosphorylation assay, ALK2; details: 15 μm ATP, 60 min at 30° C.; read-out: ALK2 EPK (IC50)
[3] = target: T1, wild-type ALK2 (aa172-499); test: ADPGlo biochemical autophosphorylation assay, ALK2; details: 15 μm ATP, 60 min at 32° C.
ALK3 (aa198-525) = ALK3 (aa198-525) (Homo sapiens (Human), UniProt P36894); test: ADPGlo biochemical autophosphorylation assay, ALK3; details: 15 μm ATP, 60 min at 32° C.
ALK5 (aa162-503) = ALK5 (aa162-503) (Homo sapiens (Human), UniProt P36897); test: Caliper biochemical peptide phosphorylation assay, ALK5; details: 15 μm ATP, 60 min at 30° C.; read-out: ALK5 EPK (IC50)
Sequence of ALK5 (aa162-503) (P36897 162-503): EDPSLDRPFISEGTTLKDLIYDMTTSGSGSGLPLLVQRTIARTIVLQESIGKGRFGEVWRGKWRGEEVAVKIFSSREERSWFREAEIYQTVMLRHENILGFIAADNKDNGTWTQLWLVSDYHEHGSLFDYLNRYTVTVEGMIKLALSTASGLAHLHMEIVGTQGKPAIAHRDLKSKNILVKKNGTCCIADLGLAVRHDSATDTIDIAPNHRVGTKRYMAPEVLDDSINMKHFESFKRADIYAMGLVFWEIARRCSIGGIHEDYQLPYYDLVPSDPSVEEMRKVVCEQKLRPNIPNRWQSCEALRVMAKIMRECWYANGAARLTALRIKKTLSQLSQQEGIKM

Sequence of ALK6 (aa168-495) (O00238 168-495): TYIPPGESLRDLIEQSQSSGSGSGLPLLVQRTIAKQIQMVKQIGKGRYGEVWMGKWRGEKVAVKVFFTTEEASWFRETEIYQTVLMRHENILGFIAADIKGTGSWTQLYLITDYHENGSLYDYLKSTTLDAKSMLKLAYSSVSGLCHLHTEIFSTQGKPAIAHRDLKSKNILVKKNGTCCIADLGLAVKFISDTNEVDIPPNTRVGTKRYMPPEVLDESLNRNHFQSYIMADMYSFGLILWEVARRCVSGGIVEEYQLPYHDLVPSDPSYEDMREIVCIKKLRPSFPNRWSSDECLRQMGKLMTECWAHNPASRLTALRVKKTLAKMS
T1 sequence (Q04771 172-499): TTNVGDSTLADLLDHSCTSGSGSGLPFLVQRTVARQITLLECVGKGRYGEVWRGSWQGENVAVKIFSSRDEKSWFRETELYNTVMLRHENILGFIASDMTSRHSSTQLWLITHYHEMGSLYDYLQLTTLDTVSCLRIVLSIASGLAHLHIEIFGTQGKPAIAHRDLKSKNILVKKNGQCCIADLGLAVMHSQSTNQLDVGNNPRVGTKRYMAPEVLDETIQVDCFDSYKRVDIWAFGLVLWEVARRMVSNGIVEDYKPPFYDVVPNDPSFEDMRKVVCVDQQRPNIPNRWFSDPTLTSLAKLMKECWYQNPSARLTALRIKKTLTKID
Sequence of ALK1 (aa166-493) (P37023 166-493): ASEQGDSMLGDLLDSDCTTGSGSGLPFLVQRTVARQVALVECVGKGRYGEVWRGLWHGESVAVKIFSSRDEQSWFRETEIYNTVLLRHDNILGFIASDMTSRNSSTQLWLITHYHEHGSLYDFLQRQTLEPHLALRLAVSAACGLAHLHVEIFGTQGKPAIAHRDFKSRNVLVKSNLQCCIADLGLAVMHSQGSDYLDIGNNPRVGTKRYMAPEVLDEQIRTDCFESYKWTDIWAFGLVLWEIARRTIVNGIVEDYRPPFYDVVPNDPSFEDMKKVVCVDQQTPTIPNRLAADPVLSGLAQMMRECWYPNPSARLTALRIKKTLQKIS
Sequence of ALK3 (aa198-525) (P36894 198-525): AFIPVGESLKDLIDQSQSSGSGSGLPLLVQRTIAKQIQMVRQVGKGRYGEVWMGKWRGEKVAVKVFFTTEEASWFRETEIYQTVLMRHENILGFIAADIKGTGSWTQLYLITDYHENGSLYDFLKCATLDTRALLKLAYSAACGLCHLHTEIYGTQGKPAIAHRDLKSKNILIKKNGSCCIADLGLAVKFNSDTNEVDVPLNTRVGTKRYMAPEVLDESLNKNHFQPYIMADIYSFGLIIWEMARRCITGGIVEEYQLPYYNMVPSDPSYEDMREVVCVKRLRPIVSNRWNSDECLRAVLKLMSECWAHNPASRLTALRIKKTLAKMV

IC50 (ALK6 (aa168-495)) [nM]	IC50 [1] [nM]	IC50 (ALK1 (aa166-493)) [nM]	IC50 [2] [nM]	IC50 [3] [nM]	IC50 (ALK3 (aa198-525)) [nM]	IC50 (ALK5 (aa162-503)) [nM]	Compound
8400	2300	370	79	34	3200	9400	CC(F)(F)CN1C[C@@H]2C[C@]2(c2ccc(-c3cnc(N)c(C(=O)N[C@H]4CC[C@H](O)CC4)c3)cc2)C1 [Example 76, 2-amino-5-(4-((1S,5R)-3-(2,2-difluoropropyl)-3-azabicyclo[3.1.0]hexan-1-yl)phenyl)-N-((1r,4S)-4-hydroxycyclohexyl)nicotinamide]
8600	1300	320	80	28	3300	10000	Nc1ncc(-c2ccc([C@@]34C[C@@H]3CN(CC(F)(F)F)C4)cc2)cc1C(=O)N[C@H]1CC[C@H](O)CC1 [Example 77, 2-amino-N-((1r,4R)-4-hydroxycyclohexyl)-5-(4-((1R,5S)-3-(2,2,2-trifluoroethyl)-3-azabicyclo[3.1.0]hexan-1-yl)phenyl)nicotinamide]
10000	220	310	109	37	8300	7800	[2H][C@]1(O)CC[C@H](NC(=O)c2cc(-c3ccc([C@]45C[C@H]4CN(C(C)C)C5)cc3)cnc2N)CC1 [Example 78, 2-amino-N-((1r,4S)-4-hydroxycyclohexyl-4-d)-5-(4-((1S,5R)-3-isopropyl-3-azabicyclo[3.1.0]hexan-1-yl)phenyl)nicotinamide]
10000	2700	890	87	86	6500	4100	CN1CCN(C(=O)c2ccc(-c3cnc(N)c(C(=O)N[C@H]4CC[C@@H](O)CC4)c3)cc2)CC1 [Example 79, 2-amino-N-((1s,4s)-4-hydroxycyclohexyl)-5-(4-(4-methylpiperazine-1-carbonyl)phenyl)nicotinamide]
4600	58	680	87	58	1800	6600	Nc1ncc(-c2ccc([C@@]34C[C@@H]3CN(C3CCC(F)(F)CC3)C4)cc2)cc1C(=O)NC12CCC(O)(CC1)CC2 [Example 80, 2-amino-5-(4-((1R,5S)-3-(4,4-difluorocyclohexyl)-3-azabicyclo[3.1.0]hexan-1-yl)phenyl)-N-(4-hydroxybicyclo[2.2.2]octan-1-yl)nicotinamide]
10000	1250	3000	110	150	15100	10000	C[C@@H]1CCCN1Cc1ccc(-c2cnc(N)c(C(=O)N[C@H]3CC[C@](C)(O)CC3)c2)c(Cl)c1 [Example 81, 2-amino-5-(2-chloro-4-(((R)-2-methylpyrrolidin-1-yl)methyl)phenyl)-N-((1r,4R)-4-hydroxy-4-methylcyclohexyl)nicotinamide]
10000	56	1600	117	82	9500	10000	C[C@]1(O)CC[C@H](NC(=O)c2cc(-c3ccc([C@@]45C[C@@H]4CN(C4CCC(F)(F)CC4)C5)cc3)cnc2N)CC1 [Example 82, 2-amino-5-(4-((1R,5S)-3-(4,4-difluorocyclohexyl)-3-azabicyclo[3.1.0]hexan-1-yl)phenyl)-N-((1r,4R)-4-hydroxy-4-methylcyclohexyl)nicotinamide]
10000	360	5600	145	100	15100	10000	CC(C)(O)C12CC(NC(=O)c3cc(-c4ccc([C@@]56C[C@@H]5CN(C5CCOCC5)C6)cc4)cnc3N)(C1)C2 [Example 83, 2-amino-N-(3-(2-hydroxypropan-2-yl)bicyclo[1.1.1]pentan-1-yl)-5-(4-((1R,5S)-3-(tetrahydro-2H-pyran-4-yl)-3-azabicyclo[3.1.0]hexan-1-yl)phenyl)nicotinamide]
